In patent US20050260219A1, “Carboxypeptidases B from anopheles gambiae. compositions comprising them, vaccine applications and use as therapeutical targets” (INSTITUT PASTEUR, priority 2004, published 2005):
Residues, ends and D or L forms follow the SMILES beside them. *: point of attachment. Bz = O=C(c1ccccc1)*

Assays:
recombinant CPBAg1 [1] = molecular target: T1, recombinant CPBAg1 (Anopheles gambiae, UniProt Q702G3); assay: Effect of inhibitors on CPBAg1 activity (Hip-Arg as substrate); type: biochemical; details: for Activity (%): relative to control without inhibitor
T1 sequence (Q702G3 20-423): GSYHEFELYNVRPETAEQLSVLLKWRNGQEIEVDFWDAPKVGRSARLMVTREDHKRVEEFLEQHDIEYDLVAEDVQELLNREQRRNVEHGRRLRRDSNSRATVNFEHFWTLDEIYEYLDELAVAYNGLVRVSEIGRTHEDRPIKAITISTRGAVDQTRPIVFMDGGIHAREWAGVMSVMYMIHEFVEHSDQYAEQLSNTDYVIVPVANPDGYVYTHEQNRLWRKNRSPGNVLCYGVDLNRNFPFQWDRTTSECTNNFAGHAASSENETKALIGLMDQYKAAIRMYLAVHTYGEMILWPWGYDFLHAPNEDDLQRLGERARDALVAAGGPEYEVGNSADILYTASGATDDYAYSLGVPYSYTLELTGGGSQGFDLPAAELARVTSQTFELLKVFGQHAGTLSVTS
Protocol: (§1) Carboxypeptidase activity was determined using the synthetic di-peptide substrates Hippuryl-Arginine (Hip-Arg), Hippuryl-Lysine (Hip-Lys) as carboxypeptidase B substrates and Hippuryl-Phenylalanine (Hip-Phe) as carboxypeptidase A substrate. All reagents were purchased from Sigma. Activities were assayed in 20 μl E buffer (100 mM NaCl/50 mM Hepes/100 μM ZnCl2 pH 7.2) containing 1 mM Hip-Arg, Hip-Lys or Hip-Phe. The reaction was initiated by adding an equal volume of His-tagged CPBAg1 (5 ng/μl in E buffer), incubated at 25° C. for 10-40 min, and stopped by the addition of 20 μl Ninhydrin reagent (Sigma, Lyon, France). The rate of the reaction was measured by estimating the amount of released amino acids using the ninhydrin procedure (60). One unit of enzyme activity was defined as μmol of amino acids released/min.
Inhibitory effects of the chelating agent 1,10-phenantroline (Sigma, Lyon, France), and of the arginine analogue GEMSA (Guanidinoethylmercaptosuccinic acid, Fluka) on CPBAg1 activity were assayed as follows: different concentrations ([…]-1 mM) of inhibitors were preincubated at 25° C. for 30 min with the recombinant protein in E buffer before addition of Hip-Arg. Activity was measured as described above and was expressed as the percentage of activity relative to controls performed in absence of inhibitor.
Accordingly, CPBAg1 activity was inhibited by the active site-directed inhibitor GEMSA, which is an arginine analogue (Table 2). Activity of the purified recombinant CPBAg1 produced in the baculovirus was assayed after incubation with the zinc-carboxypeptidase inhibitor 1,10-phenantroline and the active site-directed inhibitor GEMSA, using Hyp-Arg as substrate. 100% activity corresponds to 1.1 and 0.8 unit/mg for 1,10-phenanatroline and GEMSA experiments, respectively.

recombinant CPBAg1 [2] = molecular target: T1, recombinant CPBAg1; assay: Carboxypeptidase activity assay on recombinant CPBAg1 with di-peptide substrates; type: biochemical; details: for Enzyme activity: purified recombinant CPBAg1 from baculovirus, 1 mM substrate, 1 unit cleaves 1 μmol product/min
Protocol: as §1
Estimation of Km and kcat was carried out after assays over a 500-fold range of Hip-Arg concentration (0.02-10 mM). Each concentration was assayed in triplicate. The kinetic parameters were derived from iterative non-linear least square fits of the Michaelis-Menten equation using the experimental data (61). Confidence limits for the fitted values were determined by 100 Monte Carlo iterations using the experimental standard deviations on individual measurements.
Activity of the purified recombinant CPBAg1 produced in baculovirus was assayed against the carboxypeptidase B di-peptide substrates Hippuryl-Arginine (Hip-Arg) and Hippuryl-Lysine (Hip-Lys) and the carboxypeptidase A di-peptide substrate Hippuryl-Phenylalanine (Hip-Phe). 1 unit cleaves 1 μmol product/min.

[3] = tested on: P. falciparum development in An. gambiae; assay: Effect of CPB substrates, free L-arginine and free L-lysine added to infected blood meal on P. falciparum development in An. gambiae; type: in vivo, Plasmodium falciparum; details: day 7 post feeding; for % Infected mosquitoes (number of dissected mosquitoes): pooled infections; for Mean number of oocysts (range): per positive midgut
Protocol: Asymptomatic village people (Senegal) or schoolchildren aged ≦10 years old (Cameroon) were mass-screened to detect parasite carriers as previously described (12). All participants were volunteers and the consent of the children's parents was obtained. The experimental protocols were approved by the Cameroonian and the Senegalese National Ethics Committees. Infections and control experiments were performed with the blood from gametocyte carrier volunteers and with the blood from parasite-free donors. Venous blood (10 ml) was collected in a heparin coated and pre-warmed tube, centrifuged for 5 minutes, 5,000 rpm, at 37° C. and the serum of the patient immediatly replaced with a prewarmed AB serum collected from donors not living in a malaria endemic country. For each experiment, batches of 60 nulliparous female mosquitoes (5 days old) starved from sugar for 24 h were fed for 10 minutes, using the artificial membrane feeding technique (24). Fully engorged females were maintained at the insectarium until dissection. For each experiment a control batch of mosquitoes was used to determine the rate and intensity of infection by oocyst detection on day 7 post feeding. These experiments were performed with a control providing an infection rate close to or above 50%. As described below these basic procedures for infecting An. gambiae with P. falciparum were modified to answer specific issues.
Mosquito infections were performed with the blood from volunteers harboring a low gametocytaemia, as described above, except that 10 μl of L-arginine (Sigma), L-lysine (Sigma), Hippuryl-Lysine (Sigma) or Hippuryl-Arginine (Sigma) at 10, 1, 0.1 and 0.01 mM in TrisHCl 50 mM pH 7.2 were added to 500 μl of P. falciparum infected blood just before mosquito feeding. As a control 10 μl of TrisHCl 50 mM pH 7.2 was added to the P. falciparum infected blood. Triplicate experiments using the blood of three different gametocyte carriers were performed except for L-lysine where only two experiments could be performed. Rate and intensity of infection were scored on day 7 after blood feeding by detection of oocysts on the mosquito midgut wall.
For the data presented in Table 4 (below), An. gambiae were fed on P. falciparum infected blood supplemented with CPB substrates: Hippuryl-Arginine or Hippuryl-Lysine. Proportion of infected mosquitoes and oocyst counts per positive midgut were determined on day 7 post feeding. For each substrate and concentration tested, data from three independent infections were pooled. […] The infected blood harboured few gametocytes resulting in a low infection rate in the control and thereby allowing the detection of the effect of carboxypeptidase substrates.
For the data presented in Table 5 (below), An. gambiae were fed on P. falciparum infected blood supplemented with L-arginine or L-lysine at three different concentrations. Proportion of infected mosquitoes and oocyst counts per positive midgut were determined on day 7 post feeding. Data were pooled from three independent infections for L-arginine experiments, and from two independent infections for L-lysine experiments.

Structure (SMILES)	Enzyme activity (recombinant CPBAg1 [2]) [unit/mg]	% Infected mosquitoes (number of dissected mosquitoes) ([3]; 100 μM)	Mean number of oocysts (range) ([3]; 100 μM)	% Infected mosquitoes (number of dissected mosquitoes) ([3]; 1 mM)	Mean number of oocysts (range) ([3]; 1 mM)	other results
c1cnc2c(c1)ccc1cccnc12 [1,10-phenantroline]	–	–	–	–	–	Activity (%) (recombinant CPBAg1 [1]; inhibitor 0.1 μM): 96 ± 2%; Activity (%) (recombinant CPBAg1 [1]; inhibitor 10 μM): 87 ± 8%; Activity (%) (recombinant CPBAg1 [1]; inhibitor 100 μM): 35 ± 5%; Activity (%) (recombinant CPBAg1 [1]; inhibitor 1000 μM): 24 ± 5%
N=C(N)NCCSC(CC(=O)O)C(=O)O (stereo not drawn) [GEMSA, Guanidinoethylmercaptosuccinic acid]	–	–	–	–	–	activity at 0.1 µM (recombinant CPBAg1 [1]): 96 ± 2%; activity at 10 µM (recombinant CPBAg1 [1]): 41%; activity at 100 µM (recombinant CPBAg1 [1]): 20 ± 2%; activity at 1000 µM (recombinant CPBAg1 [1]): 7 ± 11%
O=C(CNC(=O)c1ccccc1)N[C@@H](Cc1ccccc1)C(=O)O [Hip-Phe, Hippuryl-Phenylalanine] (Bz-Gly-Phe-OH)	0	–	–	–	–	–
N=C(N)NCCC[C@H](NC(=O)CNC(=O)c1ccccc1)C(=O)O [Hippuryl-Arginine] (Bz-Gly-Arg-OH)	0.83 ± 0.01	40.9 (88) %	2.1 (1-7)	28 (50) %	2.1 (1-8)	activity against Hip-Arg relative to Hip-Lys (recombinant CPBAg1 [2]; ratio of enzyme activities of Table 1): approximately 3.5 times; % Infected mosquitoes (number of dissected mosquitoes) ([3]; 10 μM): 26.3 (80) %; Mean number of oocysts (range) ([3]; 10 μM): 2.3 (1-10)
NCCCC[C@H](NC(=O)CNC(=O)c1ccccc1)C(=O)O [Hippuryl-Lysine] (Bz-Gly-Lys-OH)	0.24 ± 0.02	41.1 (90) %	2.4 (1-6)	46.7 (92) %	2.5 (1-12)	% Infected mosquitoes (number of dissected mosquitoes) ([3]; 10 mM): 23.8 (80) %; Mean number of oocysts (range) ([3]; 10 mM): 2.1 (1-6)
N=C(N)NCCC[C@H](N)C(=O)O [L-arginine]	–	38.4 (86) %	3.2 (1-13)	34.4 (64) %	5.3 (1-26)	% Infected mosquitoes (number of dissected mosquitoes) ([3]; 10 mM): 55.2 (58) %; Mean number of oocysts (range) ([3]; 10 mM): 5.2 (1-31)
NCCCC[C@H](N)C(=O)O [L-lysine]	–	42.1 (38) %	4.9 (1-15)	30.5 (36) %	8.3 (1-44)	% Infected mosquitoes (number of dissected mosquitoes) ([3]; 10 μM): 62.9 (35) %; Mean number of oocysts (range) ([3]; 10 μM): 8.2 (1-18)
